Measured values published in patent publication US20250041356A1, “COMBINATION CANCER THERAPY” (Prokarium Limited, priority 2021, published 2025).

What was measured:
Primary human monocytes = experiment: In vitro conditioning of primary human monocytes, TNFα release after PAMP/DAMP challenge (ELISA); assay type: cell-based
Procedure: Primary human monocytes were conditioned in vitro with Salmonella for 30 minutes prior to being washed with an antibiotic to remove all Salmonella and subsequently rested for 6 days in the presence of M-CSF. Following the 6 day rest period, the human monocytes were stimulated with PAMPs, DAMPs or a media only control, and the level of TNFα release measured via ELISA.

[1] = test system: 4T1-Luc2-1A4 tumour cells; details: monitored over 52 days; log-rank (Mantel-Cox) test
Procedure: Dilutions of the attenuated Salmonella Typhimurium strain (MD58) were made in PBS as required to achieve 1×10^9 CFU/100 μl for oral gavage.
6-7-week-old female BALB/c mice were pre-treated orally with 1×10^9 CFU Salmonella MD58 or PBS control. On day 0 mice were inoculated in mammary fat pad #4 with 5×10^5 4T1-Luc2-1A4 tumour cells. […] Primary tumour volumes were measured 3 times per week, lung tumour burden was measured by bioluminescent imaging (BLI) and survival was monitored until 52 days after tumour inoculation

Molecule	level of release of TNFα compared to cells treated with media (negative control) (Primary human monocytes; challenge other than PAMPs (DAMPs))	responsiveness to PAMPs and DAMPs, level of release of TNFα (Primary human monocytes; conditioned 30 minutes, rested 6 days with M-CSF, then challenged)	survival compared to PBS+saline control [1]
β-glucan	no difference	only induces hyperresponsiveness in response to challenge with PAMPs	
O=P1(N(CCCl)CCCl)NCCCO1 (stereo not drawn) [PBS+cyclophosphamide, cyclophosphamide]			significantly better survival
